According to ChEMBL document CHEMBL5729068, “Inhibitors of KRAS G12C and methods of using the same” (2022):

Biological target: GTPase KRas (Homo sapiens, UniProt P01116, C118A/G12C)
Assay: Biochemical Assay: The following assay conditions were employed: Coupled Nucleotide Exchange Assay: Purified GDP-bound KRAS protein (aa 1-169), containing both G12C and C118A amino acid substitutions and an N-terminal His-tag, was pre-incubated with a compound dose-response titration for 5 min in assay buffer (25 mM HEPES pH 7.4, 10 mM MgCl2, and 0.01% Triton X-100). Following compound pre-incubation, purified SOS protein (aa 564-1049) and GTP (Roche 10106399001) were added to the assay wells and incubated for an additional 30 min. To determine the extent of inhibition of SOS-mediated nucleotide exchange, purified GST-tagged cRAF (aa 1-149), nickel chelate AlphaLISA acceptor beads (PerkinElmer AL108R), and AlphaScreen glutathione donor beads (PerkinElmer 6765302) were added to the assay wells and incubated for 5 minutes. The assay plates were then read on a PerkinElmer EnVision Multilabel Reader, using AlphaScreen® technology, and data were analyzed using a 4-parameter logistic model to calculate IC50 values.

Sequence of GTPase KRas (P01116 whole entry G12C/C118A, the tested form may be a part): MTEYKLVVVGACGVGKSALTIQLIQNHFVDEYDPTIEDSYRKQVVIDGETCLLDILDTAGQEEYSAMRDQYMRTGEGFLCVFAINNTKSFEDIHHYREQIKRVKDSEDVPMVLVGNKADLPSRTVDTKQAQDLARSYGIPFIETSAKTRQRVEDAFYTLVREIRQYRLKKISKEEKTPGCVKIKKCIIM

Compound: C=CC(=O)N1[C@H](C)CN(c2nc(=O)n(-c3c(C)ccnc3C(C)C)c3nc(-c4c(N)cccc4F)c(Cl)cc23)C[C@@H]1C (atropisomer, axis not shown)
- IC50: 14 nM
